The Kd is the equilibrium constant for the complex coming apart.

The nature of this assay: Binding affinity to Plasmodium falciparum NDH2 expressed in Escherichia coli BL21 assessed as NADH Kd by SPR assay (reference value: 5.22 uM).

For the compound `Cc1c(-c2ccc(Cc3ccc(OC(F)(F)F)cc3)cc2)[nH]c2cccc(F)c2c1=O`, the Kd worked out at 37.2 µM.

(Values after ChEMBL document CHEMBL4007417, “Target Elucidation by Cocrystal Structures of NADH-Ubiquinone Oxidoreductase of Plasmodium falciparum (PfNDH2) with Small Molecule To Eliminate Drug-Resistant Malaria” (J Med Chem, 2017).)
